Data from ChEMBL document CHEMBL1201862, “PubChem BioAssay data set” (2004).
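Test compounds were applied to cells in 96-well plates for 48 hours at 5 doses. At the GI50, growth is halved.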 The source made the active and inactive calls. Cut-off read from the data, not from the text of the source: active = GI50 up to about 1.1 µM and inactive = higher.

Legend:
Assay in all cases: growth of human tumour cells (NCI), 48 h
OVCAR-3 = tested on: OVCAR-3
SNB-75 = tested on: SNB-75
A549 = tested on: A549
Hs-578T = tested on: Hs-578T
ACHN = tested on: ACHN
OVCAR-5 = tested on: OVCAR-5
SK-MEL-5 = tested on: SK-MEL-5
MOLT-4 = tested on: MOLT-4
SNB-19 = tested on: SNB-19
UACC-62 = tested on: UACC-62
HCC 2998 = tested on: HCC 2998
SF-268 = tested on: SF-268
CCRF-CEM = tested on: CCRF-CEM
NCI-H226 = tested on: NCI-H226
EKVX = tested on: EKVX
HOP-92 = tested on: HOP-92
HT-29 = tested on: HT-29
T47D = tested on: T47D
IGROV-1 = tested on: IGROV-1

Compound | GI50 (OVCAR-3) | GI50 (SNB-75) | GI50 (A549) | GI50 (Hs-578T) | GI50 (ACHN) | GI50 (OVCAR-5) | GI50 (SK-MEL-5) | GI50 (MOLT-4) | GI50 (SNB-19) | GI50 (UACC-62) | GI50 (HCC 2998) | GI50 (SF-268) | GI50 (CCRF-CEM) | GI50 (NCI-H226) | GI50 (EKVX) | GI50 (HOP-92) | GI50 (HT-29) | GI50 (T47D) | GI50 (IGROV-1)
COC(=O)C1=C(C(=O)OC)SC2(S1)C(C(=O)OC)=C(C(=O)OC)Sc1c2ssc1=O | 0.904 µM (active) | 4.01 µM (inactive) | 9.66 µM (inactive) | 5.18 µM (inactive) | 0.927 µM (active) | 2.11 µM (inactive) | 1.21 µM (inactive) | 0.353 µM (active) | 18.5 µM (inactive) | 0.526 µM (active) | 1.31 µM (inactive) | 2.52 µM (inactive) | 0.076 µM (active) | 1.48 µM (inactive) | 2.16 µM (inactive) | 0.826 µM (active) | 0.585 µM (active) | 1.12 µM (active) | 1.65 µM (inactive)
CN1c2ccccc2C(=O)NC12CCN(CC1COc3ccccc3O1)CC2 (stereo not given) |  | > 100 µM (inactive) | 50.6 µM (inactive) | 32.7 µM (inactive) | 19.6 µM (inactive) | 48.6 µM (inactive) | 16.2 µM (inactive) | 23.1 µM (inactive) | 31.3 µM (inactive) | 29.7 µM (inactive) | > 100 µM (inactive) | > 100 µM (inactive) | 36.1 µM (inactive) | 19.2 µM (inactive) | 51.6 µM (inactive) | 14 µM (inactive) | 31.9 µM (inactive) | 21.2 µM (inactive) | 45.1 µM (inactive)
CSC(=N\c1ccccc1)/N=C(\SCc1ccccc1)N(C)C | 0.869 µM (active) | 1.62 µM (inactive) | 1.75 µM (inactive) | 0.859 µM (active) | 1 µM (active) | 1.49 µM (inactive) | 1.47 µM (inactive) | 0.382 µM (active) | 1.39 µM (inactive) | 0.555 µM (active) | 0.359 µM (active) | 0.971 µM (active) | 0.27 µM (active) | 1.49 µM (inactive) | 1.63 µM (inactive) | 1.4 µM (inactive) | 0.288 µM (active) | 0.427 µM (active) | 0.923 µM (active)
O=P(Nc1ccccc1)(Oc1ccccc1)N1CCN(c2ccccc2)CC1 (stereo not given) | 18.7 µM (inactive) | 15.2 µM (inactive) | 17.5 µM (inactive) | 17.9 µM (inactive) | 22.4 µM (inactive) | 17.9 µM (inactive) | 19.4 µM (inactive) | 17.9 µM (inactive) | 15.8 µM (inactive) | 12.7 µM (inactive) | 16.3 µM (inactive) | 23.2 µM (inactive) | 26.3 µM (inactive) | 22.3 µM (inactive) | 17.4 µM (inactive) | 18.7 µM (inactive) | 15.8 µM (inactive) | 22.6 µM (inactive) | 20.8 µM (inactive)
Cc1cc(=O)nc(Sc2ccc([N+](=O)[O-])cc2[N+](=O)[O-])[nH]1 | 17 µM (inactive) | 1.53 µM (inactive) | 18.5 µM (inactive) | 37.8 µM (inactive) | 19.8 µM (inactive) | 17.9 µM (inactive) | 1.75 µM (inactive) | 7.59 µM (inactive) | 26.1 µM (inactive) | 17.3 µM (inactive) | 16.3 µM (inactive) | 24.4 µM (inactive) | 0.822 µM (active) | 19.7 µM (inactive) | 32.7 µM (inactive) | 6.64 µM (inactive) | 3.55 µM (inactive) | 17.5 µM (inactive) | 80.2 µM (inactive)
CN1C(=O)C(CCO)(C(C)(C)C)c2ccccc21 (stereo not given) | > 100 µM (inactive) | 68.1 µM (inactive) | > 100 µM (inactive) | > 100 µM (inactive) | > 100 µM (inactive) | > 100 µM (inactive) | > 100 µM (inactive) | > 100 µM (inactive) | > 100 µM (inactive) | > 100 µM (inactive) | > 100 µM (inactive) | > 100 µM (inactive) | > 100 µM (inactive) | 97.9 µM (inactive) | > 100 µM (inactive) | > 100 µM (inactive) |  | > 100 µM (inactive) | 
COc1ccccc1C1SCC(=O)N1c1ccc(-n2c(-c3ccccc3)nc3ccccc3c2=O)cc1 (stereo not given) | > 100 µM (inactive) | 3.51 µM (inactive) | 62.7 µM (inactive) | 39.4 µM (inactive) | 71.8 µM (inactive) | > 100 µM (inactive) | 37.5 µM (inactive) | 28.8 µM (inactive) | > 100 µM (inactive) | 29.2 µM (inactive) | 70.6 µM (inactive) | 78.2 µM (inactive) | 44.5 µM (inactive) | 74.1 µM (inactive) | > 100 µM (inactive) | 19.2 µM (inactive) | 64.1 µM (inactive) | 12.9 µM (inactive) | 46.6 µM (inactive)
